Where two headings read alike, the source gives them in different places.
Assay: Single oral dose human plasma pharmacokinetics of D, DA and DOH after Cogni.Q
Type: in vivo
Details: for Tmax / AUC(0-t) / Cmax / half-life: human, plasma
Text: Ten healthy male and 10 female subjects were recruited by public announcement in Amarillo, TX, from January 2013 to April 2013 (see Fig. 1 CONSORT diagram). The sample size for each gender was chosen without power calculation due to the lack of prior knowledge of PK parameter variance in humans. After receiving informed consent verbally and in writing, the health status of each candidate was confirmed by health questionnaire, plasma biochemistry (hepatic and renal functions), complete blood cell count (CBC), and a physical examination by a participating academic physician. Subjects with diabetes, or pregnant, perinatal and breastfeeding women were excluded. For the 48 hours preceding study visit until the final blood draw, all subjects were instructed to avoid taking any prescription or nonprescription drugs, vitamins, and herbal/dietary supplements. Each subject was compensated for participating in the study per TTUHSC IRB approved rate.
Eligible subjects arrived at our clinical facility at 0700 (7:00 am) on the test day after a fast beginning at 2200 (10:00 pm) the previous night. After a brief review of vital signs, the nurse placed an intravenous (IV) line with saline drip in one arm of each subject. A baseline pre-dose (hour 0) blood sample was drawn through the IV line; after that subjects swallowed four Cogni.Q vegicaps with 240 mL of water at hour 0 under direct supervision. Subjects stayed at the clinical facility in their room for the next 12 hours, returning at 24 and 48 hours. Blood was drawn at baseline (hour 0) and at 0.5, 1, 2, 3, 4, 6, 8, 12, 24 and 48 hours after dosing into Vacutainer Blood Collection Tube (Becton-Dickinson, Franklin Lakes, NJ. Product Number: 367874, Sodium heparin was used as anti-coagulant). Water was allowed as desired except for within the first hour after Cogni.Q consumption. All subjects received standardized meals at post-dose hours 4.5 and 9.5 but no food was allowed for at least the first 4 hours post-dose.
Plasma was prepared by centrifuging the heparinized blood at 1000 g for 15 minutes at room temperature. Urine samples (40mL) were collected within time spans of 0–4, 4–8, 8–12 and 12–24 hours (total volume of urine was recorded). All plasma and urine samples were put on dry ice immediately and then stored at -80°C freezer until analysis.
Plasma samples were extracted with a validated solid supported liquid extraction (SLE) method facilitated with a positive pressure manifold (Biotage, Charlotte, NC). Briefly, 100 μL of plasma sample was spiked with 5 μL of 10 ng/μL prednisolone (IS), diluted with 200 μL of LC-MS grade water, mixed and loaded onto ISOLUTE SLE+ 400 μL Array Well cartridges (Biotage, Charlotte, NC). A pulse of minimum positive pressure was applied to facilitate the samples absorption into the cartridges. After the samples were allowed to absorb for 5 min, the compounds were eluted with 2×500 μL tert-butyl methyl ether. The eluent was dried in a Speedvac and the resulting residue was reconstituted in 50 μL of methanol for UHPLC-MS/MS analysis.
Eight-point calibration curves were constructed for D, DA and DOH, at concentrations of 0.1, 0.5, 1, 5, 10, 20, 50 and 100 μg/L for D and DA, and at concentrations of 1, 5, 10, 50, 100, 200, 500 and 1000 μg/L for DOH, respectively. The linear range was 0.1–100 μg/L (0.3–300 nmol/L), 0.1–100 μg/L (0.3–300 nmol/L) and 1–1000 μg/L (4–4000 nmol/L) for D, DA and DOH, respectively. The inter- and intra-assay CV were lower than 6.5% and the accuracy was between 90–105%. Calibration curve was run for each batch of samples analyzed. The mean calibration curve correlation coefficient (r) for D, DA and DOH was 0.999, 0.999 and 0.998, respectively (data from 7–10 calibration curves). In addition, 70% of the plasma samples were extracted and analyzed twice, the data from two replicate analyses were nearly identical and combined for final data analyses and presentation. […]

Q: With `C/C=C(/C)C(=O)O[C@H]1Cc2cc3ccc(=O)oc3cc2OC1(C)C` [DA, decursinol angelate] as the compound, how does the Tmax (oral, 4 Cogni.Q vegicaps, subject S9 (158 lb), read-out: Tmax) read?
A: 1 h

Q: And the AUC(0-t) (oral, 4 Cogni.Q vegicaps, subject S10 (185 lb), read-out: AUC0-48h)?
A: 115 nmol·h/L

Q: What about the Cmax (oral, 4 Cogni.Q vegicaps, subject S10 (185 lb), read-out: Cmax) of the same compound?
A: 7 nM

Q: And the half-life (oral, 4 Cogni.Q vegicaps, subject S10 (185 lb), read-out: Terminal t1/2, h (converted))?
A: 13.3 h

Q: And the Tmax (oral, 4 Cogni.Q vegicaps, subject S10 (185 lb), read-out: Tmax)?
A: 2 h

Q: What about the AUC(0-t) (oral, 4 Cogni.Q vegicaps, subject S11 (178 lb), read-out: AUC0-48h) of the same compound?
A: 168 nmol·h/L

Q: And the Cmax (oral, 4 Cogni.Q vegicaps, subject S11 (178 lb), read-out: Cmax)?
A: 29.7 nM

Q: And the half-life (oral, 4 Cogni.Q vegicaps, subject S11 (178 lb), read-out: Terminal t1/2, h (converted))?
A: 14.2 h

Q: What about the Tmax (oral, 4 Cogni.Q vegicaps, subject S11 (178 lb), read-out: Tmax) of the same compound?
A: 1 h

Q: And the AUC(0-t) (oral, 4 Cogni.Q vegicaps, subject S12 (169 lb), read-out: AUC0-48h)?
A: 150 nmol·h/L

Q: What about the Cmax (oral, 4 Cogni.Q vegicaps, subject S12 (169 lb), read-out: Cmax) of the same compound?
A: 16.8 nM

Q: And the half-life (oral, 4 Cogni.Q vegicaps, subject S12 (169 lb), read-out: Terminal t1/2, h (converted))?
A: 40.2 h

Q: What about the Tmax (oral, 4 Cogni.Q vegicaps, subject S12 (169 lb), read-out: Tmax) of the same compound?
A: 2 h

Q: And the AUC(0-t) (oral, 4 Cogni.Q vegicaps, subject S13 (192 lb), read-out: AUC0-48h)?
A: 106 nmol·h/L

Q: What about the Cmax (oral, 4 Cogni.Q vegicaps, subject S13 (192 lb), read-out: Cmax) of the same compound?
A: 11.2 nM

Q: What about the half-life (oral, 4 Cogni.Q vegicaps, subject S13 (192 lb), read-out: Terminal t1/2, h (converted)) of the same compound?
A: 12.7 h

Q: And the Tmax (oral, 4 Cogni.Q vegicaps, subject S13 (192 lb), read-out: Tmax)?
A: 1 h

Q: And the AUC(0-t) (oral, 4 Cogni.Q vegicaps, subject S14 (200 lb), read-out: AUC0-48h)?
A: 96.4 nmol·h/L

Q: And the Cmax (oral, 4 Cogni.Q vegicaps, subject S14 (200 lb), read-out: Cmax)?
A: 24.4 nM

Q: And the half-life (oral, 4 Cogni.Q vegicaps, subject S14 (200 lb), read-out: Terminal t1/2, h (converted))?
A: 12.6 h

Q: And the Tmax (oral, 4 Cogni.Q vegicaps, subject S14 (200 lb), read-out: Tmax)?
A: 1 h

Q: And the AUC(0-t) (oral, 4 Cogni.Q vegicaps, subject S15 (177 lb), read-out: AUC0-48h)?
A: 512 nmol·h/L

Q: What about the Cmax (oral, 4 Cogni.Q vegicaps, subject S15 (177 lb), read-out: Cmax) of the same compound?
A: 196 nM

Q: What about the half-life (oral, 4 Cogni.Q vegicaps, subject S15 (177 lb), read-out: Terminal t1/2, h (converted)) of the same compound?
A: 18.7 h

Q: And the Tmax (oral, 4 Cogni.Q vegicaps, subject S15 (177 lb), read-out: Tmax)?
A: 1 h

Q: What about the Tmax (oral, 4 Cogni.Q vegicaps, subject S16 (175 lb), read-out: Tmax) of the same compound?
A: 3 h

Q: And the AUC(0-t) (oral, 4 Cogni.Q vegicaps, subject S17 (147 lb), read-out: AUC0-48h)?
A: 593 nmol·h/L

Q: And the Cmax (oral, 4 Cogni.Q vegicaps, subject S17 (147 lb), read-out: Cmax)?
A: 104 nM

Q: What about the half-life (oral, 4 Cogni.Q vegicaps, subject S17 (147 lb), read-out: Terminal t1/2, h (converted)) of the same compound?
A: 24.2 h

Q: And the Tmax (oral, 4 Cogni.Q vegicaps, subject S17 (147 lb), read-out: Tmax)?
A: 2 h

Q: What about the half-life (oral, 4 Cogni.Q vegicaps, subject S18 (180 lb), outlier, excluded from means, read-out: Terminal t1/2, h (converted)) of the same compound?
A: 55.7 h

Q: What about the AUC(0-t) (oral, 4 Cogni.Q vegicaps, subject S18 (180 lb), read-out: AUC0-48h) of the same compound?
A: 48.1 nmol·h/L

Q: What about the Cmax (oral, 4 Cogni.Q vegicaps, subject S18 (180 lb), read-out: Cmax) of the same compound?
A: 3 nM

Q: What about the Tmax (oral, 4 Cogni.Q vegicaps, subject S18 (180 lb), read-out: Tmax) of the same compound?
A: 4 h

Q: What about the AUC(0-t) (oral, 4 Cogni.Q vegicaps, subject S19 (130 lb), read-out: AUC0-48h) of the same compound?
A: 87.7 nmol·h/L

Q: And the Cmax (oral, 4 Cogni.Q vegicaps, subject S19 (130 lb), read-out: Cmax)?
A: 6.9 nM

Q: And the half-life (oral, 4 Cogni.Q vegicaps, subject S19 (130 lb), read-out: Terminal t1/2, h (converted))?
A: 16 h

Q: And the Tmax (oral, 4 Cogni.Q vegicaps, subject S19 (130 lb), read-out: Tmax)?
A: 4 h

Q: And the half-life (oral, subject S16 (175 lb), outlier, excluded from means, read-out: Terminal t1/2, h (converted))?
A: 190 h

Q: And the AUC(0-t) (oral, subject S16 (175 lb), read-out: AUC0-48h)?
A: 68.4 nmol·h/L

Q: And the Cmax (oral, subject S16 (175 lb), read-out: Cmax)?
A: 4.3 nM

Q: And the AUC(0-t) (oral, subject S20 (200 lb), read-out: AUC0-48h)?
A: 170 nmol·h/L

Q: And the Cmax (oral, subject S20 (200 lb), read-out: Cmax)?
A: 17.2 nM

Q: What about the half-life (oral, subject S20 (200 lb), read-out: Terminal t1/2, h (converted)) of the same compound?
A: 18.8 h

Q: And the Tmax (oral, subject S20 (200 lb), read-out: Tmax)?
A: 2 h

Q: What about the “conversion of D/DA to DOH” value (humans, from plasma AUC0–48h values) of the same compound?
A: > 98%

Q: And the AUC(0-t) (male, oral, 4 Cogni.Q vegicaps, Men n=10 (S1 Table), read-out: AUC0-48h, Mean)?
A: 327 nmol·h/L

Q: And the Cmax (male, oral, 4 Cogni.Q vegicaps, Men n=10 (S1 Table), read-out: Cmax, nM, Mean)?
A: 52.2 nM

Q: And the Tmax (male, oral, 4 Cogni.Q vegicaps, Men n=10 (S1 Table), read-out: Tmax, h, Mean)?
A: 2.1 h

Q: What about the half-life (male, oral, Men, outliers excluded (S1 Table), read-out: Terminal t1/2, h, Mean (converted)) of the same compound?
A: 14.9 h

Q: And the AUC(0-t) (male, po, Men N = 10, single oral dose Cogni.Q, read-out: AUC0–48h, h.nmol/L Mean (SD))?
A: 327 nmol·h/L

Q: And the Cmax (male, po, Men N = 10, single oral dose Cogni.Q, read-out: Cmax, nmol/L, Mean (SD))?
A: 52.2 nM

Q: What about the Tmax (male, po, Men N = 10, single oral dose Cogni.Q, read-out: Tmax, h, Mean (SD)) of the same compound?
A: 2.1 h

Q: And the half-life (male, po, Men, outlier subjects excluded, single oral dose Cogni.Q, read-out: T1/2, h, terminal Mean (SD) (converted))?
A: 14.9 h

Q: What about the “difference in C max among subjects in the same gender” value (same gender) of the same compound?
A: more than 20 fold
